Measured values reported in the NIST ThermoML archive (doi:10.1021/acs.jced.9b00283).

Test: xn = mol fraction of the nth substance listed
Conditions: 100 kPa, Liquid, Pycnometric method

OCCCCCO [1,5-pentanediol] + CCn1cc[n+](C)c1.F[B-](F)(F)F
Conditions | molar volume [m3/mol]
303.15 K, x1 = 0.129 | 0.0001423
303.15 K, x1 = 0.982 | 0.0001069
308.15 K, x1 = 0.151 | 0.0001416
308.15 K, x1 = 0.977 | 0.0001075
313.15 K, x1 = 0.183 | 0.0001412
313.15 K, x1 = 0.97 | 0.0001062
318.15 K, x1 = 0.231 | 0.0001381
318.15 K, x1 = 0.969 | 0.0001064

OCCCCO [1,4-butanediol] + CCn1cc[n+](C)c1.O=S(=O)([N-]S(=O)(=O)C(F)(F)F)C(F)(F)F
Conditions | molar volume [m3/mol]
298.15 K, x1 = 0.177 | 0.0002253
298.15 K, x1 = 0.971 | 9.23e-05
303.15 K, x1 = 0.189 | 0.0002241
303.15 K, x1 = 0.968 | 9.31e-05
308.15 K, x1 = 0.217 | 0.00022
308.15 K, x1 = 0.962 | 9.36e-05
313.15 K, x1 = 0.233 | 0.0002181
313.15 K, x1 = 0.958 | 9.29e-05

OCCCCO [1,4-butanediol] + CCn1cc[n+](C)c1.F[B-](F)(F)F
Conditions | molar volume [m3/mol]
298.15 K, x1 = 0.19 | 0.0001368
298.15 K, x1 = 0.978 | 9.18e-05
303.15 K, x1 = 0.24 | 0.0001346
303.15 K, x1 = 0.962 | 9.26e-05
308.15 K, x1 = 0.251 | 0.0001345
308.15 K, x1 = 0.957 | 9.33e-05
313.15 K, x1 = 0.326 | 0.0001286
313.15 K, x1 = 0.944 | 9.04e-05

OCCCO [propan-1,3-diol] + CCn1cc[n+](C)c1.O=S(=O)([N-]S(=O)(=O)C(F)(F)F)C(F)(F)F
Conditions | molar volume [m3/mol]
298.15 K, x1 = 0.208 | 0.0002153
298.15 K, x1 = 0.977 | 7.48e-05
303.15 K, x1 = 0.226 | 0.0002124
303.15 K, x1 = 0.974 | 7.55e-05
308.15 K, x1 = 0.234 | 0.0002114
308.15 K, x1 = 0.971 | 7.61e-05
313.15 K, x1 = 0.259 | 0.0002063
313.15 K, x1 = 0.971 | 7.6e-05

OCCCCCO [1,5-pentanediol] + CCn1cc[n+](C)c1.O=S(=O)([N-]S(=O)(=O)C(F)(F)F)C(F)(F)F
Conditions | molar volume [m3/mol]
298.15 K, x1 = 0.142 | 0.0002297
298.15 K, x1 = 0.995 | 0.0001075
303.15 K, x1 = 0.16 | 0.0002253
303.15 K, x1 = 0.992 | 0.0001086
308.15 K, x1 = 0.175 | 0.0002251
308.15 K, x1 = 0.987 | 0.0001088
313.15 K, x1 = 0.193 | 0.0002239
313.15 K, x1 = 0.982 | 0.0001095
